Source: the kinase profiling compilation of Christmann-Franck et al. (2016)

Columns and labels:
Assay in all cases: SelectScreen, TR FRET
Settings in all cases: compound 5.0 µM
MAPK3 (human) = MAPK3 (human) (UniProt P27361)
MYLK2 (human) = MYLK2 (human) (UniProt Q9H1R3)
PTK2 (human) = PTK2 (human) (UniProt Q05397)
PRKCA (human) = PRKCA (human) (UniProt P17252)
EPHA8 (human) = EPHA8 (human) (UniProt P29322)
FGFR4 (human) = FGFR4 (human) (UniProt P22455)
NEK2 (human) = NEK2 (human) (UniProt P51955)
NEK2 (human), sequence (P51955 whole entry, looked up): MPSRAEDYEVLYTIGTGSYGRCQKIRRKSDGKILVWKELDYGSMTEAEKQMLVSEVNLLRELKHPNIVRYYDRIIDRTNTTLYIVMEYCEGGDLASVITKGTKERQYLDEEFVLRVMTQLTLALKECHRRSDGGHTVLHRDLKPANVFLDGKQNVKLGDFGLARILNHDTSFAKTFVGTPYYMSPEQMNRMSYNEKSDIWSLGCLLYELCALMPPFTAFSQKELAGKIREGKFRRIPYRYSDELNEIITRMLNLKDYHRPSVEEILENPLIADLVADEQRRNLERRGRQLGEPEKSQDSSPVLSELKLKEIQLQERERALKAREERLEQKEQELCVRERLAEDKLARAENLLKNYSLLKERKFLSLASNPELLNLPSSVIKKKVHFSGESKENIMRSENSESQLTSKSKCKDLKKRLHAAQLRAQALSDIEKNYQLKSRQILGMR

TEK (human) = TEK (human) (UniProt Q02763)
NTRK1 (human) = NTRK1 (human) (UniProt P04629)
PRKCB1 (human) = PRKCB1 (human) (UniProt P05771)
AKT3 (human) = AKT3 (human) (UniProt Q9Y243)
ERBB4 (human) = ERBB4 (human) (UniProt Q15303)
CAMK2A (human) = CAMK2A (human) (UniProt Q9UQM7)
CHEK1 (human) = CHEK1 (human) (UniProt O14757)
PASK (human) = PASK (human) (UniProt Q96RG2)
EPHB4 (human) = EPHB4 (human) (UniProt P54760)
ERBB2 (human) = ERBB2 (human) (UniProt P04626)
MAP2K1 (human) = MAP2K1 (human) (UniProt Q02750)
MAPK13 (human) = MAPK13 (human) (UniProt O15264)
MAPK11 (human) = MAPK11 (human) (UniProt Q15759)
MAPK11 (human), sequence (Q15759 whole entry, looked up): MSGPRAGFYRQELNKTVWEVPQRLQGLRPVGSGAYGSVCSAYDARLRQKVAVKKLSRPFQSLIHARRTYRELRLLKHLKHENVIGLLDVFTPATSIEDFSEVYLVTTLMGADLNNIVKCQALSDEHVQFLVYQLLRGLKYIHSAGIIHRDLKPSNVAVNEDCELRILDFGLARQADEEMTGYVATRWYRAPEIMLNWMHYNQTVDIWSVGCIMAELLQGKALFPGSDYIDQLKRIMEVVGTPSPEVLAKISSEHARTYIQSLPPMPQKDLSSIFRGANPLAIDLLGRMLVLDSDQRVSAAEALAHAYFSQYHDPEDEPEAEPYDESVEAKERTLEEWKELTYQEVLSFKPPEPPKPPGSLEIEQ

AKT1 (human) = AKT1 (human) (UniProt P31749)
AKT1 (human), sequence (P31749 whole entry, looked up): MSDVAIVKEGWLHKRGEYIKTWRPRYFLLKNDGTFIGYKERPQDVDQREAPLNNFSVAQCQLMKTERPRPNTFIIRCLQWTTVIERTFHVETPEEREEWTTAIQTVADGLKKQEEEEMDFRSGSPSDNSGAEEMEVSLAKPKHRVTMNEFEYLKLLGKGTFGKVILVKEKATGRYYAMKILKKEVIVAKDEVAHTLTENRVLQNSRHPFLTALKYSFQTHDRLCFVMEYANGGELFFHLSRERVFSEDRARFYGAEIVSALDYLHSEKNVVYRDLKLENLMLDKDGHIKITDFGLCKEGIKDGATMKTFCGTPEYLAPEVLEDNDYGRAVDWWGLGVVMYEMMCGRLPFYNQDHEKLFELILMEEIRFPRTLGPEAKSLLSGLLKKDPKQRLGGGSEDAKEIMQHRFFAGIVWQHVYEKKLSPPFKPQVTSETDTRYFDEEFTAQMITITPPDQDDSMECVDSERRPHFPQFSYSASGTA

ADRBK2 (human) = ADRBK2 (human) (UniProt P35626)
ADRBK2 (human), sequence (P35626 whole entry, looked up): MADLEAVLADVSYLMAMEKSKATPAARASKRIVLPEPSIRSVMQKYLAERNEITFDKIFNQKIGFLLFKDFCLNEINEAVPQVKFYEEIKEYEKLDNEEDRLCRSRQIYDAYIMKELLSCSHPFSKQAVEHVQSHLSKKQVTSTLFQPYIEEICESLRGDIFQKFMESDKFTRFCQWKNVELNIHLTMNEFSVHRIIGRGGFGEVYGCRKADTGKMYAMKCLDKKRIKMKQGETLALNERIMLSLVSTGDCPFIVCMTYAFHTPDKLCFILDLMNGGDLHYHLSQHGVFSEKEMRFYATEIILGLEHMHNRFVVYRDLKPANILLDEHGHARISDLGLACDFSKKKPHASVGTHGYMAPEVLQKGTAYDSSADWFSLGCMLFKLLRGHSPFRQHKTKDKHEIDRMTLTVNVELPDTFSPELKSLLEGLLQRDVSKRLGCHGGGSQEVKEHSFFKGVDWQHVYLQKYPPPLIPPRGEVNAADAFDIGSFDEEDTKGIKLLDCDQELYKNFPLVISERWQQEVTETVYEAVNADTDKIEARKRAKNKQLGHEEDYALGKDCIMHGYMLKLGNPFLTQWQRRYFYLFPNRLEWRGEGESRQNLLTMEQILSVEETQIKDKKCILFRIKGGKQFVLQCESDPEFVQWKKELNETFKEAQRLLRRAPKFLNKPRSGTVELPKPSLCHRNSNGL

[1] = system: MET (human), P08581 [M1250T]
TBK1 (human) = TBK1 (human) (UniProt Q9UHD2)
DYRK4 (human) = DYRK4 (human) (UniProt Q9NR20)
[2] = system: EGFR (human), P00533 [L858R]
EGFR (human), P00533 [L858R], sequence (P00533 whole entry L858R, looked up): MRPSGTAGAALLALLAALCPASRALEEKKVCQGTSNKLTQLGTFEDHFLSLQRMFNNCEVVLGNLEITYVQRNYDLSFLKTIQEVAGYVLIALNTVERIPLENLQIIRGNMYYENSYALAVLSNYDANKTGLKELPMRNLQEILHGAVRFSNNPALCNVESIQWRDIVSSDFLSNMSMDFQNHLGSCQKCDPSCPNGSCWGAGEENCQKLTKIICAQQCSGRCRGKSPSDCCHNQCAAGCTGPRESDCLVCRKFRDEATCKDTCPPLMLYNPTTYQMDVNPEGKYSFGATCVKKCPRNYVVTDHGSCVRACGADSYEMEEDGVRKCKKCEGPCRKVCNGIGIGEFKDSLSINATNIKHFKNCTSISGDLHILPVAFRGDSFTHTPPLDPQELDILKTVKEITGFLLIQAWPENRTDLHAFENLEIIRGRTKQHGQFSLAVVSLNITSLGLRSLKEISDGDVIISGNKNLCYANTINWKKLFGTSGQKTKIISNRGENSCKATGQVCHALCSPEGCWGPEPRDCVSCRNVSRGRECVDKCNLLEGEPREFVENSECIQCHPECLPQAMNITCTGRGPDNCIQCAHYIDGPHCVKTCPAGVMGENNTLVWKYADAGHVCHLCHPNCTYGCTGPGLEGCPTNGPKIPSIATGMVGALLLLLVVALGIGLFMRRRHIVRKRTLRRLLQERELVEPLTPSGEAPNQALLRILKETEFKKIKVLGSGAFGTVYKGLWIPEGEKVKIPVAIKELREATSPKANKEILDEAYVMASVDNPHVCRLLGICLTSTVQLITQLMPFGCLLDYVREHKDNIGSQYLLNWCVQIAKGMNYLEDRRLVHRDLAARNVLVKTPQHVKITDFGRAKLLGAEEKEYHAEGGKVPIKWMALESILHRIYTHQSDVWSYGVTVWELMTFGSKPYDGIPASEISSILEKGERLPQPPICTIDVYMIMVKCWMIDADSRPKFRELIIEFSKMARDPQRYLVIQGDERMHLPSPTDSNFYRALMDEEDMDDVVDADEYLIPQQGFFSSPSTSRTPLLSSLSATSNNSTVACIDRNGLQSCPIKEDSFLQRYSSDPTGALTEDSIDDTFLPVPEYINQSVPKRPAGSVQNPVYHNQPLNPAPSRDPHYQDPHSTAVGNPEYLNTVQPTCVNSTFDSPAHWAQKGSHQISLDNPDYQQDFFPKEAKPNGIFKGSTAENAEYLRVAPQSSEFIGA

FGFR2 (human) = FGFR2 (human) (UniProt P21802)
LCK (human) = LCK (human) (UniProt P06239)
PLK2 (human) = PLK2 (human) (UniProt Q9NYY3)
ROCK2 (human) = ROCK2 (human) (UniProt O75116)
PRKCQ (human) = PRKCQ (human) (UniProt Q04759)
PRKCQ (human), sequence (Q04759 whole entry, looked up): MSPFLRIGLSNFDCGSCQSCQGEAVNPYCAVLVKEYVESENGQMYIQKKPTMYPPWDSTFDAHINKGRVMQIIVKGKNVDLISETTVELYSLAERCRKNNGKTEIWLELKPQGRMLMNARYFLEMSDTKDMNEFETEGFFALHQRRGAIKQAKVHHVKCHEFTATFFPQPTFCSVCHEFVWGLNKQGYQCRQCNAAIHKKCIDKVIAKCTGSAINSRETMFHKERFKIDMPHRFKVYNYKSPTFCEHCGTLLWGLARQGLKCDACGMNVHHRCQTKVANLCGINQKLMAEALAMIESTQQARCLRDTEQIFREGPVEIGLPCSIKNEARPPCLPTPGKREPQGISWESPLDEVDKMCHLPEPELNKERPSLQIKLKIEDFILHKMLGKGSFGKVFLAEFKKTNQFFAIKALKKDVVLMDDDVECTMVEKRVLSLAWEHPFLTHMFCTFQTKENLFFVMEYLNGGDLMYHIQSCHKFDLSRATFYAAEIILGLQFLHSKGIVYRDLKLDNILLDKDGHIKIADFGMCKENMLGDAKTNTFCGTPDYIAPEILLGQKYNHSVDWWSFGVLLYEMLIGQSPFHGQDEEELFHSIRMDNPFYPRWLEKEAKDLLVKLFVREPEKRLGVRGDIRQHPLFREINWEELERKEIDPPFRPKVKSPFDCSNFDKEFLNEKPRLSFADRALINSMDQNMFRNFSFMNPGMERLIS

PRKCZ (human) = PRKCZ (human) (UniProt Q05513)
PIM2 (human) = PIM2 (human) (UniProt Q9P1W9)
PIM2 (human), sequence (Q9P1W9 whole entry, looked up): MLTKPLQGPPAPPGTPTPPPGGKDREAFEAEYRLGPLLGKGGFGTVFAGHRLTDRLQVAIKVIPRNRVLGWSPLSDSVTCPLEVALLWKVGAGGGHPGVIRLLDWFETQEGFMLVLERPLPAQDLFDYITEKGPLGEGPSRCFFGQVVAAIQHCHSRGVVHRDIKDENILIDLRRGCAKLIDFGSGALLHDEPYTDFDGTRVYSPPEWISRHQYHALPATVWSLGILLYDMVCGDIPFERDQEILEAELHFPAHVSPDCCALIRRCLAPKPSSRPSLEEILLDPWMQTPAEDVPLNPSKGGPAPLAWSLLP

SRMS (human) = SRMS (human) (UniProt Q9H3Y6)
MAPKAPK5 (human) = MAPKAPK5 (human) (UniProt Q8IW41)
[3] = system: ABL1 (human), P00519 [Y253F]
RPS6KA2 KD1 KD2 (human) = RPS6KA2 KD1 KD2 (human) (UniProt Q15349)
PRKCG (human) = PRKCG (human) (UniProt P05129)
JAK2 JH1 JH2 (human) = JAK2 JH1 JH2 (human) (UniProt O60674)
PRKD2 (human) = PRKD2 (human) (UniProt Q9BZL6)

FGFR4 (human), sequence (P22455 whole entry, looked up): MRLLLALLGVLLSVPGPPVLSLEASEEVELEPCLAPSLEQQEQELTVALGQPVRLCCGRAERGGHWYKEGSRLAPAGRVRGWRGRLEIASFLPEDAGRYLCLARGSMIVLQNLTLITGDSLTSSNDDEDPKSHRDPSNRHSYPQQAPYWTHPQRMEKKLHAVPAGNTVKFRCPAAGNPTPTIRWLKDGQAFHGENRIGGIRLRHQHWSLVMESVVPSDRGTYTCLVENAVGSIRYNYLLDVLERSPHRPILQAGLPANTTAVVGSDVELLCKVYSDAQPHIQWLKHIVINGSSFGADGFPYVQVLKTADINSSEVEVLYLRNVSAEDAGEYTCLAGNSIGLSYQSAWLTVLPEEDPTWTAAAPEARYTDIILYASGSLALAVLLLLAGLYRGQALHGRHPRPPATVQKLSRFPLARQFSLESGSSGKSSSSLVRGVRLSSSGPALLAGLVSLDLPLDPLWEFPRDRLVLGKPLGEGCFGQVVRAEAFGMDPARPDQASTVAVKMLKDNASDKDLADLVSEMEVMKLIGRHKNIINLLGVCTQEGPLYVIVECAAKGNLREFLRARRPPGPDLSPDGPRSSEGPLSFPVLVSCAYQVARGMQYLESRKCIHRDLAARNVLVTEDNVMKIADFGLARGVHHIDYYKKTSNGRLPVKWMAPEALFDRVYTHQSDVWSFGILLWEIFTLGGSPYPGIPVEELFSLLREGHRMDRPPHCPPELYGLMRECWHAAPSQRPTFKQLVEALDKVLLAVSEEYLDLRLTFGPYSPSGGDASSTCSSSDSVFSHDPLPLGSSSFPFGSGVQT

inhibition (MAPK3 (human)): 7% | inhibition (MYLK2 (human)): 8% | inhibition (PTK2 (human)): 4% | inhibition (PRKCA (human)): 4% | inhibition (EPHA8 (human)): 3% | inhibition (FGFR4 (human)): 5% | inhibition (NEK2 (human)): 7% | inhibition (TEK (human)): 5% | inhibition (NTRK1 (human)): 9% | inhibition (PRKCB1 (human)): 30% | inhibition (AKT3 (human)): 3% | inhibition (ERBB4 (human)): 10% | inhibition (CAMK2A (human)): 2% | inhibition (CHEK1 (human)): 3% | inhibition (PASK (human)): -1% | inhibition (EPHB4 (human)): -4% | inhibition (ERBB2 (human)): -4% | inhibition (MAP2K1 (human)): 4% | inhibition (MAPK13 (human)): 2% | inhibition (MAPK11 (human)): 4% | inhibition (AKT1 (human)): 2% | inhibition (ADRBK2 (human)): 2% | inhibition [1]: 1% | inhibition (TBK1 (human)): 7% | inhibition (DYRK4 (human)): 3% | inhibition [2]: 12% | inhibition (FGFR2 (human)): 2% | inhibition (LCK (human)): 7% | inhibition (PLK2 (human)): -2% | inhibition (ROCK2 (human)): 3% | inhibition (PRKCQ (human)): 5% | inhibition (PRKCZ (human)): 2% | inhibition (PIM2 (human)): 3% | inhibition (SRMS (human)): 13% | inhibition (MAPKAPK5 (human)): -1% | inhibition [3]: 1% | inhibition (RPS6KA2 KD1 KD2 (human)): 4% | inhibition (PRKCG (human)): 5% | inhibition (JAK2 JH1 JH2 (human)): 18% | inhibition (PRKD2 (human)): 2%
Compound: Nc1cc(C(F)(F)F)c(-c2cc(N3CCOCC3)nc(N3CCOCC3)n2)cn1
